From US9750698B2, “Controlled release compositions of agents that reduce circulating levels of platelets and methods therefor” (BioVascular, Inc., priority 2008, dated 2017)
Blank lines part the entries; values can stand above or below the compound they belong to.

What was measured:
[1] = Repeat-dose dose-escalation study of controlled release anagrelide: pharmacokinetics; format: in vivo, human; details: for AUC0-inf / AUC0-t / AUC0-τ / Cmax: dose-normalized to 0.2 mg
Description: A placebo-controlled, double-blind repeat-dose, dose-escalation, sequential cohort study was conducted to evaluate the pharmacokinetics and pharmacodynamics of a controlled release composition of anagrelide as described herein in healthy subjects. An objective of the study was to explore the dose-response relationship for effects on platelet counts of a low dose range of a composition of anagrelide as described herein in healthy subjects. Other objectives of the study included determining the time course of effect and recovery of a range of doses of the composition including anagrelide on platelet count, determining the effects of a range of doses of the anagrelide compositions on platelet aggregation (collagen and ADP as agonists), determining the single and repeat dose pharmacokinetics of the anagrelide composition, and exploring the safety and tolerability of the compositions given as single doses and repeatedly for up to 21 days.
Eligible subjects were treated as follows: • Subjects were admitted to the unit on day 1 in the morning after an overnight fast and remain in the unit until 4 hours after morning dosing on day 5. • Subjects received a single dose of controlled release composition including anagrelide (or matching placebo) on day 1 in the morning. • Subjects commenced repeat dosing twice a day with the controlled release anagrelide composition on the morning of day 3 and remained in the unit until 4 hours after morning dose on day 5. • Subjects continued repeat twice a day dosing with the controlled release anagrelide composition as outpatients. Dosing continued until the morning of day 23. • All morning doses were taken after an overnight fast of at least 8 hour. • All evening doses were taken at least 2 hour after food consumption. No food was to be consumed for at least 1 hour after any dose (4 hours for the morning doses on day 1 and day 23). • On day 6-day 21, blood was taken pre-dosing of the controlled release anagrelide composition for full blood count (FBC) and platelet count (every day), trough PK (day 7, day 10, day 13, day 16 and day 19) and clinical chemistry (day 13). • Subjects were readmitted to the unit on the morning of day 22 and remained there until day 25 so that the PK of the final dose of the controlled release composition containing anagrelide on day 23 could be followed for 48 hours. • Subjects returned to the clinic daily from day 26 to day 31 for FBC and platelet counts. • Subjects returned for a follow up visit 14-16 days after the last dose of the controlled release composition containing anagrelide. Study Population:
A controlled release composition of anagrelide as described above in Table 4 of Example 1 (composition 2 fast release with seal coat) was used in unit doses of 100 μg and 300 μg, administered orally.
In this protocol, 4 cohorts of 200 μg, 300 μg, 400 μg and 600 μg doses of the controlled release composition including anagrelide administered twice daily were studied.
Platelet count, collagen-induced platelet aggregation, ADP induced platelet aggregation, template bleeding time, AUC0-t, AUC0-∞, Cmax, Cmin, t1/2, λZ and tmax were determined.
The starting dose of 200 μg (as a single dose on day 1 and then twice a day for 21 days) was chosen as a dose unlikely to cause any clinically significant reduction in platelet counts in healthy subjects. This starting dose was chosen because identification of the lowest dose of the controlled release composition containing anagrelide producing any effect on platelet counts was of interest. In each subsequent cohort the dose was increased by […] twice a day with the objective of identifying the dose range that lowers platelet counts by 30-50%. With daily monitoring of platelet counts, this escalation was determined to allow identification of the effective dose range of the controlled release composition of anagrelide without placing the subjects at significant clinical risk.

[2] = tested on: cultured megakaryocytes; details: cited from earlier work
[3] = patients with ET or other myeloproliferative diseases; cited from earlier work
[4] = 38 volunteers, single 1 mg dose of immediate release anagrelide (Agrylin); cited from earlier work
[5] = tested on: PDEIII; details: cited from earlier work
[6] = commercially available instant release formulation; cited from earlier work
[7] = Pre-formulation excipient compatibility by high sensitivity isothermal calorimetry; format: physicochemical; details: binary mixture 1:1, isothermal calorimetry, 24 hours, 30-80° C.
Description: Pre-formulation studies utilizing binary mixtures of the API with various excipients (ethylcellulose, Eudragit® RS and RL, Aquacoat® ECD30, ammonium oleate and Surelease® E7 1904) were conducted using a high sensitivity calorimeter in isothermal mode. Excipients were compared on their own and as mixtures with/without saturated sodium chloride solution present. In this technique, the heat changes in samples (API alone, excipient alone, API:excipient (1:1 ratio)) were monitored over 24 hours at a temperature range of 30-80° C. […] Improved dosage forms were formed by employing ethylcellulose in the excipient system and a mode of application including organic (ethanol) spray application due to the insolubility of ethylcellulose in water.

Kel ([1]; cohort 1 (0.2 mg), day 1): 0.0985 h⁻¹
t1/2 ([1]; cohort 1 (0.2 mg), day 1): 7.78 h
Kel ([1]; cohort 1 (0.2 mg), day 23): 0.0608 h⁻¹
t1/2 ([1]; cohort 1 (0.2 mg), day 23): 12.69 h
Kel ([1]; cohort 2 (0.4 mg), day 1): 0.0641 h⁻¹
t1/2 ([1]; cohort 2 (0.4 mg), day 1): 11.64 h
Kel ([1]; cohort 2 (0.4 mg), day 23): 0.0527 h⁻¹
t1/2 ([1]; cohort 2 (0.4 mg), day 23): 13.77 h
Kel ([1]; cohort 3 (0.6 mg), day 1): 0.0673 h⁻¹
t1/2 ([1]; cohort 3 (0.6 mg), day 1): 12.87 h
Kel ([1]; cohort 4 (0.3 mg), day 1): 0.0596 h⁻¹
t1/2 ([1]; cohort 4 (0.3 mg), day 1): 15.30 h
Kel ([1]; cohort 4 (0.3 mg), day 23): 0.0492 h⁻¹
t1/2 ([1]; cohort 4 (0.3 mg), day 23): 15.13 h
AUC0-inf ([1]; cohort 1 (0.2 mg), day 1): 4.6957 ng·h/mL
AUC0-t ([1]; cohort 1 (0.2 mg), day 1): 4.04622 ng·h/mL
AUC0-τ ([1]; cohort 1 (0.2 mg), day 1): 4.17916 ng·h/mL
Cmax ([1]; cohort 1 (0.2 mg), day 1): 0.61542 ng/mL
AUC0-inf ([1]; cohort 1 (0.2 mg), day 23): 7.27841 ng·h/mL
AUC0-τ ([1]; cohort 1 (0.2 mg), day 23): 5.66247 ng·h/mL
Cmax ([1]; cohort 1 (0.2 mg), day 23): 0.75569 ng/mL
AUC0-inf ([1]; cohort 2 (0.4 mg), day 1): 3.98674 ng·h/mL
AUC0-t ([1]; cohort 2 (0.4 mg), day 1): 3.36645 ng·h/mL
AUC0-τ ([1]; cohort 2 (0.4 mg), day 1): 3.04925 ng·h/mL
Cmax ([1]; cohort 2 (0.4 mg), day 1): 0.35828 ng/mL
AUC0-inf ([1]; cohort 2 (0.4 mg), day 23): 6.18331 ng·h/mL
AUC0-τ ([1]; cohort 2 (0.4 mg), day 23): 4.8106 ng·h/mL
Cmax ([1]; cohort 2 (0.4 mg), day 23): 0.5158 ng/mL
AUC0-inf ([1]; cohort 3 (0.6 mg), day 1): 4.6058 ng·h/mL
AUC0-t ([1]; cohort 3 (0.6 mg), day 1): 3.93912 ng·h/mL
AUC0-τ ([1]; cohort 3 (0.6 mg), day 1): 3.50858 ng·h/mL
Cmax ([1]; cohort 3 (0.6 mg), day 1): 0.44422 ng/mL
AUC0-inf ([1]; cohort 4 (0.3 mg), day 1): 4.46186 ng·h/mL
AUC0-t ([1]; cohort 4 (0.3 mg), day 1): 3.40306 ng·h/mL
AUC0-τ ([1]; cohort 4 (0.3 mg), day 1): 2.99087 ng·h/mL
Cmax ([1]; cohort 4 (0.3 mg), day 1): 0.40142 ng/mL
AUC0-inf ([1]; cohort 4 (0.3 mg), day 23): 5.45894 ng·h/mL
AUC0-τ ([1]; cohort 4 (0.3 mg), day 23): 4.28075 ng·h/mL
Cmax ([1]; cohort 4 (0.3 mg), day 23): 0.45837 ng/mL
Tmax (median) ([1]; cohort 1 (0.2 mg), day 1): 4.01 h
Tmax (median) ([1]; cohort 1 (0.2 mg), day 23): 3.00 h
Tmax (median) ([1]; cohort 2 (0.4 mg), day 1): 3.51 h
Tmax (median) ([1]; cohort 2 (0.4 mg), day 23): 3.02 h
Tmax (median) ([1]; cohort 3 (0.6 mg), day 1): 4.00 h
Tmax (median) ([1]; cohort 4 (0.3 mg), day 1): 3.61 h
Tmax (median) ([1]; cohort 4 (0.3 mg), day 23): 3.00 h
SMILES: O=C1NC2=Nc3ccc(Cl)c(Cl)c3CN2C1O (centres unmarked) [3-Hydroxy-Anagrelide]

SMILES: O=C1NC2=Nc3ccc(Cl)c(Cl)c3CN2C1O (centres unmarked) [3-hydroxy anagrelide, 6,7-dichloro-3-hydroxy-1,5-dihydro-imidazo[2,1-b]quinazolin-2-one]
In vitro effects on megakaryocytopoiesis relative to anagrelide [2]: equipotent
Observed half-life [3]: 3.9 h
Share of all drug-related products in the plasma [3]: about 45%
AUC0-inf ± RSD (%) [4]: 18.0 ± 35.6 ng·h/mL
Cmax ± RSD (%) [4]: 5.47 ± 56.9 ng/mL
Tmax ± RSD (%) [4]: 1.28 ± 58.1 h
t1/2 ± RSD (%) [4]: 2.5 ± 28.7 h
Potency as PDEIII inhibitor relative to anagrelide [5]: 40 times
Terminal half-life [6]: 3.9 h

SMILES: Cl.O.O=C1CN2Cc3c(ccc(Cl)c3Cl)N=C2N1 [API, 6,7-dichloro-1,5-dihydroimidazo-[2,1-b]quinazolin-2(3H)-one mono-hydrochloride monohydrate]
Compatibility with Aquacoat [7]: not conclusive as to compatibility
Compatibility with Eudragit (RS and RL) [7]: showed evidence of incompatibility
Compatibility with Surelease [7]: showed evidence of incompatibility
Compatibility with ammonium oleate [7]: showed evidence of incompatibility
Compatibility with ethylcellulose [7]: showed evidence of compatibility

SMILES: NC1=Nc2ccc(Cl)c(Cl)c2CN1 [RL603, 2-amino-5,6-dichloro-3,4-dihydroquinazoline]
Activity on TPO-induced stimulation of megakaryocytes / megakaryocytopoiesis [2]: essentially inactive
Observed half-life [3]: 8.7 h
Share of all drug-related products in the plasma [3]: about 33%
AUC0-inf ± RSD (%) [4]: 16.0 ± 32.3 ng·h/mL
Cmax ± RSD (%) [4]: 1.36 ± 34.0 ng/mL
Tmax ± RSD (%) [4]: 2.5 ± 58.5 h
t1/2 ± RSD (%) [4]: 7.8 ± 31.1 h
Activity against PDE III [5]: essentially inactive
